# Data published in patent publication US20040248801A1, “Methods and reagents for regulation of cellular responses in biological systems” (priority 2000, published 2004).
# Assays:
# [1] = target: glucose/galactose-binding protein (GGBP) (Escherichia coli, UniProt P0AEE5); assay: in vitro binding assay with purified GGBP
# Text: The molecular events leading to bacterial chemotaxis have been well studied, and the process has served as a general model for receptor-mediated responses. During chemotaxis in Escherichia coli, chemoattractants, such as sugars and amino acids, and chemorepellents are recognized by specific receptors at the bacterial plasma membrane. For these investigations of multivalent ligand activity, galactose was selected as a model chemoattractant. […] For galactose-mediated signaling, the saccharide must bind to the soluble periplasmic glucose/galactose-binding protein (GGBP), which, in turn, interacts with the galactose-sensing chemoreceptor, Trg. Galactose-GGBP binding to Trg initiates a signaling pathway that results in reversal of the direction of flagellar spin, allowing the bacteria to swim towards the nutrient.
# Galactose-bearing ligands 1-4 of varying defined valencies were generated using ROMP methods (Scheme 1). The galactose residues in the multivalent ligands are tethered to the molecular scaffold (polymer backbone) via a short linker.
# E. coli = E. coli capillary accumulation assay; type: cell-based, Escherichia coli
# Description: FIGS. 3A and 3B: Results of E. coli capillary accumulation assays. The number of bacteria accumulated is plotted versus the concentration of the attractant (galactose or compounds 1-4, Scheme 1) calculated on a saccharide residue basis. (A): Results are shown for capillaries filled with buffer alone, compound 1, and compound 2 or (B): buffer alone, compound 3 and compound 4 at the indicated concentrations. The vertical line at 1 mM indicates the concentration of maximum chemotaxis for the monomeric compound 1. […] Results are the average of 3 to 6 experiments performed in duplicate and error bars represent a single standard deviation. Partial permeabilization was required to obtain chemotaxis towards 4, and was utilized for all experiments.
# E. coli were subjected to concentration gradients of compounds 1-4 in capillary accumulation assays to determine the concentration at which the maximum chemotactic response is achieved and the number of bacteria that accumulate at this maximum.
# Concentrations of maximum chemotaxis of 3 and 4 are 100- and 5000-fold lower, respectively, than free galactose (FIG. 3B). […]
# E. coli from an overnight culture were grown in LB to OD550 0.4-0.6, washed twice with E. coli chemotaxis buffer, and then partially permeabilized. […] Data was analyzed using the Q and Students tests.
# E. coli AW405 = assay: video microscopy motion analysis of bacteria; type: cell-based, Escherichia coli; details: first 5-15 seconds after addition of attractant
# Description: FIG. 2A: Results of video microscopy motion analysis experiments. Bacteria (Escherichia coli) were treated with buffer alone, galactose, or compound 1 or 3 (Scheme 1) at the indicated saccharide concentrations. The results represent the average from at least five independent experiments performed in triplicate. Error bars represent the deviation between per-second averages during the ten second interval.
# Ligands functionalized with galactose such as monovalent ligand 1 and multivalent ligand 3, also serve as attractants in vivo. […] To observe the effects of synthetic ligands on tumbling frequency, E. coli were treated with galactose or galactose-bearing ligands, and bacterial motion was recorded and analyzed using the method of Sager et al.. The tumbling frequency was assessed by averaging the mean angular velocity of the paths obtained in the first 5-15 seconds after addition of attractant (FIG. 2A). […]
# Partially permeabilized bacteria (25 μM EDTA for 3 min. at room temperature, then quench with 50 μM CaCl2) at an OD550 of 0.1 were placed under a cover slip supported by additional cover slips in the method of Sager et al.. […] The bacterial motion at 28° C. was recorded, and the paths were analyzed using the ExpertVision system. Paths derived from the first 5 to 15 seconds following the introduction of attractant were analyzed. […] Data were analyzed using the Q and Students tests.
# glucose/galactose-binding protein (GGBP), sequence (P0AEE5 24-332 limits assumed): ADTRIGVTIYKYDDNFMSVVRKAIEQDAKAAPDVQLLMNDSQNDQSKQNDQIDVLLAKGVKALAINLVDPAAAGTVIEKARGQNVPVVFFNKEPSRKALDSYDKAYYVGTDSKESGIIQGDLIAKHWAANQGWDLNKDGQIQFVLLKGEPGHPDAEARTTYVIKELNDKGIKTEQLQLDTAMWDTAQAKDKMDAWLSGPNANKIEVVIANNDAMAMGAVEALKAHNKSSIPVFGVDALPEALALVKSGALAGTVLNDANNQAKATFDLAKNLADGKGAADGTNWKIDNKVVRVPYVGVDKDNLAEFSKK
smiles,measurement,setting,value
O=C(NCCOC1OC(CO)C(O)C(O)C1O)C1C[C@@H]2C=CC1C2 (stereo partly shown) [Compound 1],interaction with purified GGBP compared with galactose,[1],at least as favorable as that of galactose
same,chemoattractant activity in mutants,E. coli; ggbp (AW550 and AW543) or trg (AW701) E. coli mutants,not a chemoattractant
same,concentration of maximum chemotaxis,"E. coli; saccharide (galactose) residue basis, partially permeabilized E. coli, 30° C., 60 min",1 mM
same,mean angular velocity (tumbling frequency) after addition of attractant,E. coli AW405,produced similar effects to that of the free chemoattractant
